According to US7309817B2, “Plant alpha farnesene synthase and polynucleotides encoding same” (The Horticulture and Food Research Institute of New Zealand …, priority 2002, dated 2007):

Key:
[1] = test system: other sesquiterpene synthases; conditions: other sesquiterpene synthases (Cai et al 2002, Steele et al 1998); read-out: Km reported in the literature; cited from earlier work
alpha-farnesene synthase = molecular target: T1, alpha-farnesene synthase (Malus domestica, UniProt Q84LB2, A297S/I281F); format: biochemical; conditions: for Vrel (%), relative activity due to additions of metal ions: saturating FDP, Mg 7 mM, Mn 150 μM, KCl or NaCl 50 mM
T1 construct: a cDNA fragment encoding EST57400 was excised from pBK-CMV57400 using a EcoRI restriction endonuclease site immediately adjacent to the start ATG; His6 (from vector pET-30a) (N); made in house; host or cells: E. coli BL21-CodonPlus-RIL
Protocol: Kinetic Studies: For kinetic studies, alpha-farnesene synthase active protein that had been induced in culture and purified as described for protein optimisation was added to a minimal assay buffer containing 50 mM Bis-Tris-Propane (pH 7.5), 10% (v/v) glycerol, 1 mM DTT and 0.1% (v/v) Tween-20. […] One mL assays containing 1-2 μg of protein were overlaid with 0.6 mL pentane and incubated in 1.5 mL microfuge tubes for 2 hours at 30° C. and 150 rpm. All assays were performed in triplicate. Following incubation assays were immediately placed on ice and a 200 μL aliquot of the pentane layer removed for analysis. The aliquots were added to 1.5 mL microfuge tubes containing […] Organic Counting Scintillant (OCS) (Amersham) and vortexed briefly. Scintillation analysis was performed using a Wallac 1409 Liquid Scintillation Counter (^3H efficiency≈70%).
The effect on enzyme activity of metal co-factors with and without salts was also tested. Mg^2+ and Mn^2+ were added in the presence and absence of 50 mM KCL and 50 mM NaCl in all possible combinations. Controls included incubation without enzyme, with enzyme but without metal ion cofactors and with enzyme and cofactors in the presence of 10 mM EDTA.
Kinetic constants were determined from the DPM data by nonlinear regression using the Origin50 graphics package. […] All experiments were carried out at least twice.

[2] = test system: CC(C)=CCC/C(C)=C/CC/C(C)=C/CO[P@@](=O)(O)OP(=O)(O)O; assay: purified protein, by the assay type; conditions: other: protein stored at -80 C for 9 months; pH 7.5
[3] = Storage stability of purified recombinant alpha-farnesene synthase at -80 C; format: physicochemical
Protocol: Characterization of alpha-farnesene synthase from bacterial extracts and partially purified alpha-farnesene synthase recombinant protein: Cultures were set up, grown and induced as above. Following induction, cultures were immediately transferred to a 24° C. incubator and allowed to grow for a further 18-20 hours with continuous agitation and then cells harvested by centrifugation (2000×g for 10 min). […] The remainder of the extract (15 ml) was applied to PD-10 gel filtration columns (Amersham-Pharmacia Biotech) pre-equilibrated with either binding or extraction buffer (DTT omitted). Eluent fractions were then pooled and purification of recombinant protein was carried out in a single step using immobilised metal affinity chromatography (IMAC). The eluent was applied to a Hi-Trap Chelating HP column (Amersham-Pharmacia Biotech) charged with Ni^+. Non bound proteins were removed and recombinant protein was eluted following the manufacturer's specifications. […] Headspace volatiles were collected as in the bacterial cultures. Aliquots of the remaining recombinant protein were stored at −80° C. in 20% glycerol until required.
Protein concentration was determined from the extinction coefficient (VectorNTI version 8) and the purified extract adjusted to ˜1 mg protein/mL with His6 elution buffer containing 10% glycerol and 1 mM DTT. […]

Question: What does the source list for `[Mg+2]` [Mg^2+]?
Answer: Km [1]: 70 to 150 µM; inhibition of activity at high Mg2+ concentration (alpha-farnesene synthase; 25 mM Mg2+): 23%; Vrel (%), relative activity due to additions of metal ions (alpha-farnesene synthase): 16%

Question: For `[Mn+2]` [Mn^2+], which Km [1] is on record?
Answer: Its Km is 7 to 30 µM.

Question: And the “inhibition of activity at high Mn2+ concentration” value (alpha-farnesene synthase; >800 μM Mn2+)?
Answer: The value was “at least 50%”.

Question: And the “Vrel (%), relative activity due to additions of metal ions” value (alpha-farnesene synthase)?
Answer: The value was 13%.

Question: Which Km [2] does the source give for “alpha-farnesene synthase (Malus domestica; A297S/I281F)” here?
Answer: The Km was 1.5 µM.

B1: alpha-farnesene synthase: recombinant His-tagged sesquiterpene synthase from apple (Malus domestica Royal Gala) skin, expressed in E. coli (protein, listed as Malus domestica)
chain: MEFRVHLQADNEQKIFQNQMKPEPEASYLINQRRSANYKPNIWKNDFLDQSLISKYDGDEYRKLSEKLIEEVKIYISAETMDLVAKLELIDSVRKLGLANLFEKEIKEALDSIAAIESDNLGTRDDLYGTALHFKILRQHGYKVSQDIFGRFMDEKGTLENHHFAHLKGMLELFEASNLGFEGEDILDEAKASLTLALRDSGHICYPDSNLSRDVVHSLELPSHRRVQWFDVKWQINAYEKDICRVNATLLELAKLNFNVVQAQLQKNLREASRWWANLGFADNLKFARDRLVECFSCAVGVAFEPEHSSFRICLTKVINLVLIIDDVYDIYGSEEELKHFTNAVDRWDSRETEQLPECMKMCFQVLYNTTCEIAREIEEENGWNQVLPQLTKVWADFCKALLVEAEWYNKSHIPTLEEYLRNGCISSSVSVLLVHSFFSITHEGTKEMADFLHKNEDLLYNISLIVRLNNDLGTSAAEQERGDSPSSIVCYMREVNASEETARKNIKGMIDNAWKKVNGKCFTTNQVPFLSSFMNNATNMARVAHSLYKDGDGFGDQEKGPRTHILSLLFQPLVN
modifications: His tag
notes: recombinant His-tagged sesquiterpene synthase from apple (Malus domestica Royal Gala) skin, expressed in E. coli
Question: Which “temperature of maximum activity” value (alpha-farnesene synthase; 7 mM Mg, 150 μM Mn, 25 μM FDP, FIG. 14) does the source give for B1 here?
Answer: The value was 37 °C.

Question: And the “loss of activity on storage” value ([3]; stored at -80 C for 9 months)?
Answer: Its value is 92.5%.

Question: What about the “loss of activity on storage” value ([3]; stored in glycerol for 4 weeks at -80 C) of the same molecule?
Answer: The value was 15%.
